The record followed here is the NIST ThermoML archive (doi:10.1021/je800658v).

± gives the expanded uncertainty stated by the source.

The nature of this data set: activity coefficient (dimensionless); of the first substance listed, at infinite dilution; xn = mol fraction of the nth substance listed. The note with it: Liquid, x1 = 0.
Where [1] appears, read: 303.35 K, inverse gas chromatography.
Where [2] appears, read: 312.55 K, inverse gas chromatography.
Setting [3] is: 322.55 K, inverse gas chromatography.
Setting [4] is: 332.55 K, inverse gas chromatography.

Regarding `Cc1ccc(C)cc1` [1,4-dimethylbenzene] + CCCCn1cc[n+](C)c1.F[B-](F)(F)F, the activity coefficient by setting is: under setting [1], 7.36 ± 0.44; under setting [2], 6.68 ± 0.4; under setting [3], 6.71 ± 0.4; under setting [4], 6.26 ± 0.38.

In the case of `ClC(Cl)(Cl)Cl` [tetrachloromethane] + CCCCn1cc[n+](C)c1.F[B-](F)(F)F, the activity coefficient is, setting by setting: under setting [1], 5.53 ± 0.33; under setting [2], 5.44 ± 0.33; under setting [3], 5.38 ± 0.32; under setting [4], 5.2 ± 0.31.

As to `CCN(CC)CC` [triethylamine] + CCCCn1cc[n+](C)c1.F[B-](F)(F)F, the activity coefficient is, setting by setting: under setting [1], 9.44 ± 0.57; under setting [2], 8.9 ± 0.6; under setting [3], 35.3 ± 2.2; under setting [4], 59.4 ± 3.6.

Take `CO` [methanol] + CCCCn1cc[n+](C)c1.F[B-](F)(F)F: the activity coefficient runs as follows: under setting [1], 1.22 ± 0.07; under setting [2], 1.22 ± 0.07; under setting [3], 1.22 ± 0.07; under setting [4], 1.18 ± 0.07.

For `CCCO` [propan-1-ol] + CCCCn1cc[n+](C)c1.F[B-](F)(F)F, the activity coefficient stood at 3.12 ± 0.19 under setting [1], 2.7 ± 0.16 under setting [2], 2.43 ± 0.15 under setting [3] and 2.14 ± 0.13 under setting [4].

In the case of `CC(C)CO` [2-methyl-1-propanol] + CCCCn1cc[n+](C)c1.F[B-](F)(F)F, the activity coefficient reads like this: under setting [1], 4.17 ± 0.25; under setting [2], 3.99 ± 0.24; under setting [3], 3.28 ± 0.2; under setting [4], 2.84 ± 0.17.

`CCCC(C)=O` [pentan-2-one] + CCCCn1cc[n+](C)c1.F[B-](F)(F)F: the activity coefficient under setting [1] was found to be 2.6 ± 0.16, the activity coefficient under setting [2] amounted to 2.6 ± 0.16, the activity coefficient under setting [3] was 2.66 ± 0.16 and the activity coefficient under setting [4] is 2.53 ± 0.15.

Take `C=O` [methanal] + CCCCn1cc[n+](C)c1.F[B-](F)(F)F: the activity coefficient turned out to be 0.22 ± 0.01 under setting [1], 0.23 ± 0.01 under setting [2], 0.26 ± 0.02 under setting [3] and 0.25 ± 0.02 under setting [4].

Take `C#CCCCCC` [1-heptyne] + CCCCn1cc[n+](C)c1.F[B-](F)(F)F: the activity coefficient came to 13.2 ± 0.79 under setting [1], 12.5 ± 0.75 under setting [2], 11.9 ± 0.72 under setting [3] and 11.7 ± 0.7 under setting [4].

Take `CCCCCC` [hexane] + CCCCn1cc[n+](C)c1.F[B-](F)(F)F: the activity coefficient worked out at 133 ± 9.1 (303.35 K, Chromatography); 130 ± 9 (312.55 K, Chromatography); 97.4 ± 6.7 (322.55 K, Chromatography); 74.2 ± 5.1 (332.55 K, Chromatography).

Turning to `CCCCCCCC` [octane] + CCCCn1cc[n+](C)c1.F[B-](F)(F)F, the activity coefficient runs as follows: under setting [1], 425 ± 26; under setting [2], 368 ± 22; under setting [3], 333 ± 20; under setting [4], 298 ± 18.

For `C[N+](=O)[O-]` [nitromethane] + CCCCn1cc[n+](C)c1.F[B-](F)(F)F, the activity coefficient under setting [1] amounted to 0.59 ± 0.04, the activity coefficient under setting [2] is 0.56 ± 0.03, the activity coefficient under setting [3] was 0.56 ± 0.03 and the activity coefficient under setting [4] is 0.56 ± 0.03.

As to `ClCCl` [dichloromethane] + CCCCn1cc[n+](C)c1.F[B-](F)(F)F, the activity coefficient runs as follows: under setting [1], 0.69 ± 0.04; under setting [2], 0.72 ± 0.04; under setting [3], 0.79 ± 0.05; under setting [4], 0.79 ± 0.05.

In the case of `CCC(=O)CC` [pentan-3-one] + CCCCn1cc[n+](C)c1.F[B-](F)(F)F, the activity coefficient runs as follows: under setting [1], 2.63 ± 0.16; under setting [2], 2.57 ± 0.15; under setting [3], 2.66 ± 0.16; under setting [4], 2.52 ± 0.15.

Regarding `c1ccsc1` [thiophene] + CCCCn1cc[n+](C)c1.F[B-](F)(F)F, the activity coefficient under setting [1] is 1.56 ± 0.09, the activity coefficient under setting [2] came to 1.52 ± 0.09, the activity coefficient under setting [3] worked out at 1.54 ± 0.09 and the activity coefficient under setting [4] amounted to 1.49 ± 0.09.

On to `C1COCCO1` [1,4-dioxane] + CCCCn1cc[n+](C)c1.F[B-](F)(F)F, for which the activity coefficient under setting [1] amounted to 1.26 ± 0.08, the activity coefficient under setting [2] is 1.24 ± 0.07, the activity coefficient under setting [3] stood at 1.28 ± 0.08 and the activity coefficient under setting [4] was 1.22 ± 0.07.

Regarding `CCCC=O` [butanal] + CCCCn1cc[n+](C)c1.F[B-](F)(F)F, the activity coefficient under setting [1] is 2.19 ± 0.13, the activity coefficient under setting [2] worked out at 2.13 ± 0.13, the activity coefficient under setting [3] amounted to 2.15 ± 0.13 and the activity coefficient under setting [4] is 2.06 ± 0.12.

`OCC(F)(F)F` [2,2,2-trifluoroethanol] + CCCCn1cc[n+](C)c1.F[B-](F)(F)F: the activity coefficient was 0.36 ± 0.02 under setting [1], 0.33 ± 0.02 under setting [2], 0.32 ± 0.02 under setting [3] and 0.3 ± 0.02 under setting [4].

`CC#N` [acetonitrile] + CCCCn1cc[n+](C)c1.F[B-](F)(F)F: the activity coefficient runs as follows: under setting [1], 0.65 ± 0.04; under setting [2], 0.63 ± 0.04; under setting [3], 0.64 ± 0.04; under setting [4], 0.61 ± 0.04.

Consider `Cc1ccccc1` [toluene] + CCCCn1cc[n+](C)c1.F[B-](F)(F)F, for which the activity coefficient is, setting by setting: under setting [1], 4.37 ± 0.26; under setting [2], 3.96 ± 0.24; under setting [3], 3.97 ± 0.24; under setting [4], 3.84 ± 0.23.

As for `CC1CCCCC1` [methylcyclohexane] + CCCCn1cc[n+](C)c1.F[B-](F)(F)F, the activity coefficient was 98.3 ± 5.9 under setting [1], 82.7 ± 5 under setting [2], 64.2 ± 3.9 under setting [3] and 57.1 ± 3.4 under setting [4].

Turning to `CCC=O` [propanal] + CCCCn1cc[n+](C)c1.F[B-](F)(F)F, the activity coefficient runs as follows: under setting [1], 1.38 ± 0.08; under setting [2], 1.33 ± 0.08; under setting [3], 1.29 ± 0.08; under setting [4], 1.21 ± 0.07.

Consider `CCOCC` [diethyl ether] + CCCCn1cc[n+](C)c1.F[B-](F)(F)F, for which the activity coefficient reads like this: under setting [1], 10.2 ± 0.61; under setting [2], 9.39 ± 0.56; under setting [3], 8.18 ± 0.49; under setting [4], 7.42 ± 0.45.

`ClC(Cl)Cl` [trichloromethane] + CCCCn1cc[n+](C)c1.F[B-](F)(F)F: the activity coefficient by setting is: under setting [1], 1.04 ± 0.06; under setting [2], 1.04 ± 0.06; under setting [3], 1.09 ± 0.07; under setting [4], 1.09 ± 0.07.

For `c1ccncc1` [pyridine] + CCCCn1cc[n+](C)c1.F[B-](F)(F)F, the activity coefficient worked out at 1 ± 0.06 under setting [1], 0.99 ± 0.06 under setting [2], 0.97 ± 0.06 under setting [3] and 0.94 ± 0.06 under setting [4].

In the case of `CCC[N+](=O)[O-]` [1-nitropropane] + CCCCn1cc[n+](C)c1.F[B-](F)(F)F, the activity coefficient under setting [1] came to 1.54 ± 0.09, the activity coefficient under setting [2] stood at 1.46 ± 0.09, the activity coefficient under setting [3] was 1.46 ± 0.09 and the activity coefficient under setting [4] worked out at 1.5 ± 0.09.

Consider `CCc1ccccc1` [ethylbenzene] + CCCCn1cc[n+](C)c1.F[B-](F)(F)F, for which the activity coefficient under setting [1] is 7.25 ± 0.44, the activity coefficient under setting [2] came out at 6.73 ± 0.4, the activity coefficient under setting [3] worked out at 6.85 ± 0.41 and the activity coefficient under setting [4] is 6.51 ± 0.39.

For `C=CCCCC` [hex-1-ene] + CCCCn1cc[n+](C)c1.F[B-](F)(F)F, the activity coefficient under setting [1] turned out to be 48 ± 2.9, the activity coefficient under setting [2] stood at 39.3 ± 2.4, the activity coefficient under setting [3] was found to be 36.3 ± 2.2 and the activity coefficient under setting [4] stood at 38.8 ± 2.3.

For the molecule `C1CCCCC1` [cyclohexane] + CCCCn1cc[n+](C)c1.F[B-](F)(F)F, the activity coefficient under setting [1] is 62.5 ± 3.8, the activity coefficient under setting [2] was 48.4 ± 2.9, the activity coefficient under setting [3] came to 42.7 ± 2.6 and the activity coefficient under setting [4] was determined as 35.3 ± 2.1.

For the molecule `CCCCCCC` [heptane] + CCCCn1cc[n+](C)c1.F[B-](F)(F)F, the activity coefficient is 259 ± 16 under setting [1], 250 ± 15 under setting [2], 216 ± 13 under setting [3] and 142 ± 8.7 under setting [4].

Consider `C1CCCCCC1` [cycloheptane] + CCCCn1cc[n+](C)c1.F[B-](F)(F)F, for which the activity coefficient under setting [1] is 78.7 ± 4.7, the activity coefficient under setting [2] worked out at 98.2 ± 5.9, the activity coefficient under setting [3] is 131 ± 7.9 and the activity coefficient under setting [4] turned out to be 167 ± 10.

With `Cc1ccccc1C` [1,2-dimethylbenzene] + CCCCn1cc[n+](C)c1.F[B-](F)(F)F, the activity coefficient was 6.53 ± 0.39 under setting [1], 5.55 ± 0.33 under setting [2], 5.83 ± 0.35 under setting [3] and 4.77 ± 0.29 under setting [4].

Consider `CC(C)O` [propan-2-ol] + CCCCn1cc[n+](C)c1.F[B-](F)(F)F, for which the activity coefficient reads like this: under setting [1], 3.2 ± 0.19; under setting [2], 2.76 ± 0.17; under setting [3], 2.5 ± 0.15; under setting [4], 2.15 ± 0.13.

For the molecule `CCCCO` [butan-1-ol] + CCCCn1cc[n+](C)c1.F[B-](F)(F)F, the activity coefficient is, setting by setting: under setting [1], 4.74 ± 0.29; under setting [2], 3.82 ± 0.23; under setting [3], 3.33 ± 0.2; under setting [4], 2.69 ± 0.16.

For the molecule `c1ccccc1` [benzene] + CCCCn1cc[n+](C)c1.F[B-](F)(F)F, the activity coefficient reads like this: under setting [1], 2.2 ± 0.13; under setting [2], 2.17 ± 0.13; under setting [3], 2.25 ± 0.14; under setting [4], 2.16 ± 0.13.

In the case of `CCO` [ethanol] + CCCCn1cc[n+](C)c1.F[B-](F)(F)F, the activity coefficient is, setting by setting: under setting [1], 2.15 ± 0.13; under setting [2], 1.91 ± 0.11; under setting [3], 1.7 ± 0.1; under setting [4], 1.53 ± 0.09.

Take `CC(C)OC(C)C` [diisopropyl ether] + CCCCn1cc[n+](C)c1.F[B-](F)(F)F: the activity coefficient by setting is: under setting [1], 30.7 ± 1.8; under setting [2], 33.5 ± 2; under setting [3], 26.9 ± 1.6; under setting [4], 24.3 ± 1.5.

Turning to `Cc1cccc(C)c1` [1,3-dimethylbenzene] + CCCCn1cc[n+](C)c1.F[B-](F)(F)F, the activity coefficient came to 7.81 ± 0.47 under setting [1], 7.4 ± 0.44 under setting [2], 6.89 ± 0.41 under setting [3] and 6.56 ± 0.39 under setting [4].
